One test relates to Healthy rats. The experiment in a line: Healthy rats - paw pressure test. In kind it is in vivo, rat. The note with it: Compound I-2 p.o. 10 mg/kg; 120 minutes after treatment. On the procedure:
(§1) Paw Pressure Test. Static mechanical hyperalgesia is measured. This test requires the application of an increasing pressure on the hind paws between a flat surface and a blunt pointer. To evaluate the analgesic action of a compound, one hind paw of the animal was inflamed by an injection or injured by ligation, while the other hind paw was not injured or inflamed. The apparatus exerted a steadily increasing force on the hind paws. The reaction threshold was determined as the pressure (g) required to elicit paw withdrawal and/or vocalization. The animals were gently handled by the experimenter and static mechanical hyperalgesia were assessed two times for both hind paws.
(§2) Testing: 120 minutes after treatment. N=4/model/test. Results are expressed for each group as a percentage of activity calculated from the mean value of the vehicle-treated animals and compared to naïve animals, control paw, or cut-off value, depending on the test.

Test [1] relates to rats. As to the kind of experiment: Formalin test - score. The class given is in vivo, rat. To be noted: Compound I-2 p.o. 10 mg/kg; 120 minutes after treatment. On the procedure: Formalin Test. 2.5% formalin solution was injected by subplantar route into the right hind paw. Scoring of pain behavior was performed in rats for 36 minutes every 3 minutes according to the following scores:
0=normal behavior of the injected hind limb to support the body
1=slight touching of the injected paw on the floor to lightly support or not support the body
2=total withdrawal of the injected paw
3=licking, biting or shaking of the injected paw.
as §2

Test [2] deals with rats. As to the kind of experiment: Oxaliplatin - acetone test (reaction time). The class given is in vivo, rat. To be noted: Compound I-2 p.o. 10 mg/kg; 120 minutes after treatment. On the procedure:
Oxaliplatin. Induction: Acute peripheral neuropathy was induced by a single intraperitoneal injection of oxaliplatin (6 mg/kg, i.p) 30 hours before testing. Acetone test: Cold allodynia was measured using the acetone test. In this test, the latency of hind paw withdrawal was measured after application of a drop of acetone (50 μL) to the plantar surface of both hind paws three times for both hind paws alternatively with intervals of approximately 2-3 min.
as §2

Test [3] has as its system rats. The experiment in a line: Carrageenan - paw pressure test. The note with it: Compound I-2 p.o. 10 mg/kg; 120 minutes after treatment. The class given is in vivo, rat. On the procedure:
as §1
Carrageenan. Induction: Three hours before assessment of the nociceptive threshold using the paw pressure test 100 μL of a 2% carrageenan suspension was injected into the plantar aspect of the right hind paw. The Paw Pressure test was then conducted as described above.
as §2
(In the carrageenan paw model, swelling and tenderness develop within hours.)

Test [4] concerns rats. The experiment in a line: Brennan model - electronic Von Frey test. The class given is in vivo, rat. The note with it: Compound I-2 p.o. 10 mg/kg; 120 minutes after treatment.
From the text: Brennan Model. Surgery: Surgery was done under gas anesthesia (2.5% isoflurane/3 L/min). For all rats, the plantar aspect of the left hind paw was exposed and a 1 cm longitudinal incision was made using a surgical blade, through the skin and fascia of the plantar aspect of the foot, starting 0.5 cm from the proximal edge of the heel and extending toward the toes. The plantaris muscle was elevated and incised longitudinally whereas the insertions remained intact. After hemostasis with gentle pressure, the skin was stitched up with two sutures. After surgery, animals recovered in their cages.
Electronic Von Frey Test. Tactile allodynia was assessed using the electronic Von Frey test 24 h after surgery. The test requires the application of an increasing pressure onto the plantar aspect of the hind paws. The apparatus exerted a steady force on the hind paws. Reaction thresholds were determined as the pressure (g) required to elicit paw withdrawal. Each reaction threshold measurement was repeated three times for both hind paws with intervals of approximately 2 to 3 mins.
as §2

Another test relates to BDNF. The experiment in a line: Effect on BDNF protein in the rat dorsal striatum, quinolinic acid lesion model. The class given is in vivo. To be noted: 10 mg/kg once a day for 7 days. On the procedure: Protocol. Experimental day 1: Rats were deeply anesthetized with isoflurane and each rat received a unilateral infusion of 0.25 μl of 50 mM quinolinic acid (QA) in the dorsal striatum (12.5 nmoles of QA on the left or right hemisphere). The dorsal striatum contralateral to the QA infusion on each rat received a control infusion of 0.25 μl PBS (control side). Some animals were dosed S.C. with vehicle (n=5) or 10 mg/Kg Compound I-2 (n=6) about 30 minutes after QA infusion. Experimental days 2-8: Rats were dosed every 24 h P.O. with Vehicle or 10 mg/Kg Compound I-2. About 24 h after the last dosing of vehicle or Compound I-2, rats were anesthetized, perfused with PBS followed by perfusion with 4% Paraformaldehyde in PBS; brain tissue was collected and placed in a falcon tube covered with 4% Paraformaldehyde (PAF) in PBS for about 14 h at 4° C. and then replaced by PBS with 30% sucrose solution for about 48 h. Brain tissue was cut in 40 μm coronal slices and stored in PBS at 4° C. […] Images from the dorsomedial area around the QA lesion or equivalent area on the control hemisphere were taken using confocal fluorescence microscopy. Images were analyzed using imageJ software to determine the average BDNF intensity in NeuN positive cells.

Turning to `Fc1ccccc1Cn1nc(-c2nc(C(F)(F)F)n[nH]2)c2cccnc21` [Compound I-2], the “% of activity vs. vehicle, healthy rats paw pressure test” value in the test with Healthy rats is reported as −10%. Moreover, in the test with rats [1], the “% of activity vs. vehicle, formalin test score (early phase)” value amounted to 61% and the “% of activity vs. vehicle, formalin test score (late phase)” value stood at 11%. For the same compound, the “% of activity vs. vehicle, oxaliplatin acetone test (reaction time)” value with rats [2] was 127%. The “% of activity vs. vehicle, carrageenan paw pressure test” value in the test on rats [3] was 75%. In the test with rats [4], the “% of activity vs. vehicle, Brennan model electronic Von Frey test” value came out at 16%. Besides, in the test on BDNF, the “BDNF averaged intensity in NeuN positive cells around the QA lesion, as compared to vehicle treatment” value was “increase” and the “BDNF averaged intensity in NeuN positive cells in the dorsomedial striatum without a lesion (control side), as compared to vehicle treatment” value is given as “increase”.

The record behind these values is patent US11690828B2, “Treatment of CNS diseases with sGC stimulators” (Cyclerion Therapeutics, Inc., priority 2016, dated 2023).
